Results as given in US20060099568A1, “Signals and molecular species involved in senescence” (priority 2002, published 2006).

What was measured:
adenylyl cyclases (ACs) = assay: measurement of adenylyl cyclase activity in membranes of LPA-treated cells; format: cell-based, human; conditions: 30 μg/ml LPA
Experimental: (§1) Subconfluent presenescent (passage 8, Pa 8) and near-senescent (passage 24, Pa 24) fibroblasts were serum-starved for 2 days and treated with 30 μg/ml LPA for the indicated times. The activities of adenylyl cyclase (A) and phosphodiesterase (B) were determined in the fresh membranes and total cell lysates as described in Materials and Methods. The enzyme activities were calculated as pmol/μg/min. The data represents an average of triplicate experiments.
Cells seeded in a 10-cm culture plate were serum-starved and treated with LPA as described in the figure legends. Cells were harvested and homogenized in ice-cold homogenization buffer containing 0.25 M sucrose, 10 mM Tris-HCl, pH 7.5, 10 mM MgCl2, 2 mM EGTA, and protease inhibitors. Homogenates were centrifuged at 20,000×g at 4° C. for 20 min. Pellets were washed twice with the above buffer, resuspended in 10 mM Tris-HCl, pH 7.4, and 10 MM MgCl2, and the adenylyl cyclase assays were performed as described previously (Jang et al. 2001). The membrane proteins (15 μg/ml) were incubated for 10 min at 30° C. in a reaction mixture (100 μl) containing 40 mM Tris, pH 7.4, 0.2 mM EGTA, 100 mM NaCl, 10 mM MgCl2, 0.5 mM ATP, 5 μg/ml phosphocreatine, 5 IU/ml creatine phosphokinase, 10 μM GTP, and 0.5 mM IBMX. The reaction was stopped by adding 2.5 M perchloric acid. The amount of cAMP generated was determined by cAMP binding assay.

Phospholipase C (PLC) = conditions: near-senescent cells (passage 23) vs presenescent (passage 6); PDGF 50 ng/ml, LPA 1 μg/ml, 20 min, 20 mM LiCl
[1] = test system: human diploid fibroblasts; assay: confocal microscopic measurement of actin polymerization (NBD-phallacidin); format: cell-based; conditions: PDGF 50 ng/ml, LPA 1 μg/ml
Experimental: FIG. 2 represents differential changes in growth factor-induced actin polymerization in senescent fibroblasts. […] The cells were fixed, permeabilized, and stained with NBD-phallacidin, then photographed.
F-actin was stained as described by Shin et al. (1999). Quiescent cells grown on glass cover slips in multi-well culture plates were treated with agonists for 30 min, and the cells were fixed with 3.7% paraformaldehyde in PBS for 30 min on ice. Following permeabilization with 0.2% Triton X-100 in PBS for 15 min on ice, the cells were stained with […] NBD-phallacidin in PBS for 30 min at RT. The stained cells were washed three times with PBS for 15 min and the cover slip was mounted on a slide glass with Gelvatol, which was prepared by mixing 100 ml of 23% polyvinyl alcohol in PBS with 50 ml glycerol. The cells were then observed under a confocal fluorescence microscope.

CREB = CREB phosphorylation, Western blot with anti-phospho-CREB antibody; format: cell-based, human; conditions: near-senescent fibroblasts; 30 μg/ml LPA
Experimental: FIG. 10 represents LPA-dependent PKA activity and CREB phosphorylation in presenescent and near-senescent fibroblasts. Subconfluent presenescent (passage 8, Pa 8) and near-senescent (passage 24, Pa 24) fibroblasts were serum-starved for 2 days and treated with 30 μg/ml LPA for the indicated times. The PKA activity (A) was determined in cell homogenates with kemptide and [γ^32P]ATP as substrates. The radioactivity incorporated into kemptide was measured by a beta-counter and the enzyme activity was calculated as pmol/min/mg protein. The data represents an average of triplicate experiments. The level of phospho-CREB (B) was measured by Western blot analysis using an anti-phospho-CREB antibody.
The expression levels of signaling proteins were examined by Western blot analysis, as described previously (Yeo et al., 2000a). […] The protein concentrations of the lysates were determined using a BCA protein assay kit, as described by the protocol supplied by the manufacturer. […] To examine the level of phospholipase D 1/2, the immunoprecipitated protein obtained using 10 μl of anti-phospholipase D 1 anti-sera (Box45, ESTP4) was analyzed by Western blot against polyclonal anti-phospholipase D 1 antibodies (1:20 dilution of NC STP4 anti-serum).

[2] = test system: phosphodiesterases (PDEs); assay: measurement of phosphodiesterase activity in LPA-treated cells; format: cell-based, human; conditions: 30 μg/ml LPA
Experimental: as §1
Phosphodiesterase (PDE) assays were performed as described previously (Jang and Juhnn, 2001). 15 μg of cytosolic proteins were incubated in 200 μl of reaction mixture containing 50 mM Tris-HCl, pH 7.4, 3 mM MgCl2, 60 pmol cAMP, 1 mM 5′-AMP for 15 min at 37° C. After the reaction was stopped by adding 2.0 M perchloric acid, the amount of remaining cAMP was determined by cAMP binding assay.

Question: For lysophosphatidic acid [LPA], which “total AC activity” value (adenylyl cyclases (ACs); near-senescent cells) is on record?
Answer: Its value is “increased”.

Question: And the “total AC activity” value (adenylyl cyclases (ACs); presenescent cells)?
Answer: Its value is “reduced time-dependently”.

Question: What about the “agonist-stimulated inositol phosphates (IPs) production” value (Phospholipase C (PLC)) of the same substance?
Answer: The value was “enhanced”.

Question: What about the “actin polymerization (stress fibers)” value ([1]; presenescent fibroblasts (passage 10)) of the same substance?
Answer: Its value is “enhanced the formation of stress fibers”.

Question: And the “agonist-induced actin polymerization in senescent cells” value ([1]; senescent cells (passage 27))?
Answer: The value was “partially reduced”.

Question: What about the CREB phosphorylation (CREB) of the same substance?
Answer: Its CREB phosphorylation is “correlated well with cAMP accumulation”.

Question: What about the PDE activity ([2]; near-senescent cells) of the same substance?
Answer: The PDE activity was “reduced”.

Question: And the PDE activity ([2]; presenescent cells)?
Answer: Its PDE activity is “increased”.
